Laboratory results taken from US20020170080A1, “Alpha-tocopherol transfer protein knockout animals” (The Regents of the University of California, priority 2000, published 2002).

Columns and labels:
femoral artery lesions = details: human clinical trial; cited from earlier work
[1] = tested on: abdominal aortas or iliac arteries; details: nonhuman primates; cited from earlier work
Ttpa^−/− females = experiment: Vitamin E supplementation of the diet and the fertility defect of Ttpa−/− female mice; format: in vivo, mouse; details: vitamin E supplementation 1000 IU/kg of diet, data not shown
Text: Ttpa^−/− mice were generally healthy. Offspring from heterozygous intercrosses were born with the expected Mendelian distribution. Ttpa^−/− mice at 18 months of age had no obvious signs of neurological disease. In contrast, humans with α-TTP gene defects develop ataxia with vitamin E deficiency by the first decade of life (Sokol et al. (1988) J. Lab. Clin. Med. 111: 548-559; Ouahchi et al. (1995) Nat. Genet. 9: 141-145; Hentati et al. (1996) Ann. Neurol. 39: 295-300). […] Ttpa^−/− males had no obvious impairment in fertility.

apo E^−/− mice = details: apo E−/− mice fed a chow diet, vitamin E supplementation; cited from earlier work

In the case of `CC(C)(Sc1cc(C(C)(C)C)c(O)c(C(C)(C)C)c1)Sc1cc(C(C)(C)C)c(O)c(C(C)(C)C)c1` [probucol], the “progression of femoral artery lesions” value (femoral artery lesions) is listed as “did not prevent progression of femoral artery lesions” and the “lesion development in abdominal aortas or iliac arteries” value [1] is listed as “did not prevent”.
In the case of vitamin E, the “effect on fertility defect” value (Ttpa^−/− females) is given as “completely reversed the fertility defect” and the levels of atherosclerosis (apo E^−/− mice) is given as “decreased levels of atherosclerosis”.
